Assays:
Assay type in all cases: cell-based
[1] = tested on: Adult Normal Human Epidermal Keratinocytes; assay: Differential gene expression (RNA sequencing) in keratinocytes treated with walnut peptides; details: 100 uM or 500 uM peptide in culture media
Method: Peptide I, II, and III were investigated for their ability to influence gene expression at concentration at 100 μM abd 500 μM for cells and 250 μM for reconstructed human epidermis (RHE).
Adult Normal Human Epidermal Keratinocytes (Lot 80819221, Passage 3, ATCC) were expanded and seeded into a 6-well plate at a density of 300,000 cells/well. Cells were grown in Dermal Cell Basal Medium (ATCC PCS-200-030) supplemented with one Keratinocyte Growth Kit (ATCC PCS-200-040). Cells attached overnight and then culture media was aspirated and replaced with media containing either 100 uM or 500 uM of Peptide I, Peptide II, or Peptide III. Cells were cultured for […] with treatment with renewal of treatment medium every other day with the exception of weekends. Following the 7-day incubation period, cells were trypsinized and the cell pellet was snap-frozen using liquid nitrogen. Cells then underwent RNA sequencing. The log 2 fold change for each treatment group compared to untreated control samples for differentially expressed genes (DEGs) related to skin barrier were analyzed. Fold change was plotted via heatmap to show upregulation or downregulation of these genes. Microsoft Excel and GraphPad Prism were used for additional analysis and data presentation. The results are shown in the heatmap of FIG. 1.

[2] = tested on: transglutaminase 1 (TGM1); assay: Barrier renewal, microneedle ex vivo skin model: TGM1 immunohistochemistry; details: 500 μM of each peptide in media; 7-day culture; microneedled human skin explants
From the text: (§1) Fresh post-abdominoplasty normal human skin samples were acquired from BioIVT Inc. (Westbury, NY). Tissue was defatted and cleaned of blood residue. Tissue was then subjected to treatment using a microneedling pen (36-pin needles, Dr. Pen A6 Cartridges Tips, Dr. Pen Inc., San Jose, CA, USA) with a needle length of 1.5 mm. Tissue was subjected to 5 passes of the microneedle. Following treatment, 1.2 cm diameter skin biopsies were created and cultured at the air-liquid interface. Skin explants not subjected to microneedling served as the untreated control group. Control and microneedle control samples were cultured in Dulbecco's Modified Eagle's Medium (650 μL per well, DMEM with 10% fetal bovine serum and 1% penicillin-streptomycin) at 37° C. and 5% CO2. Treated microneedle samples with the peptides were cultured in DMEM with 10% fetal bovine serum, 1% penicillin-streptomycin. 500 uM of each peptide was dissolved into the media. Treatment medium was changed every other day with the exception of weekends. Following a 7-day culture period, all biopsies were processed for histological and immunohistochemical analysis. Skin explants were processed for hematoxylin and eosin (H&E) staining and immunohistochemical staining against filaggrin (FLG) and transglutaminase 1 (TGM1) according to standard protocol (HistoWiz, Brooklyn, NY).

[3] = tested on: normal human skin samples; assay: Ex vivo chronic inflammation model (CSC): H&E histology; details: 500 μM of each peptide; cell stimulation cocktail (CSC); 7-day culture; human skin explants
Method: Fresh post-abdominoplasty normal human skin samples were acquired from BioIVT Inc. (Westbury, NY). Tissue was defatted and cleaned of blood residue. 1.2 cm diameter skin biopsies were created and cultured at the air-liquid interface. Skin explants not subjected to the inflammatory stimulant served as the untreated control group. Control samples were cultured in Dulbecco's Modified Eagle's Medium (650 μL per well, DMEM with 10% fetal bovine serum and 1% penicillin-streptomycin) at 37° C. and 5% CO2. Treated microneedle samples with the peptides were cultured in DMEM with 10% fetal bovine serum, 1% penicillin-streptomycin with a 2× dilution of cell stimulation cocktail (CSC) 500×. Samples treated with the peptide contained 500 μM of each peptide dissolved into the media. Fresh stimulants were made each time replenishing the treatment medium every other day with the exception of weekends. Following a 7-day culture period, all biopsies were processed for histological and immunohistochemical analysis. Skin explants were processed for hematoxylin and eosin (H&E) staining and immunohistochemical staining against filaggrin (FLG) and transglutaminase 1 (TGM1) according to standard protocol (HistoWiz, Brooklyn, NY).

[4] = tested on: filaggrin (FLG); assay: Barrier renewal, microneedle ex vivo skin model: filaggrin immunohistochemistry; details: 500 μM of each peptide in media; 7-day culture; microneedled human skin explants
From the text: as §1

| Substance | differentially expressed genes (DEGs) related to skin barrier, log 2 fold change compared to untreated control (FIG. 1) [1] | expression and localization of TGM1 after microneedling [2] | epidermal stress, spongiosis/vacuole formation induced by CSC (H&E histology, FIG. 4) [3] | filaggrin expression after microneedling [4] |
| --- | --- | --- | --- | --- |
| Lys-Val-Pro-Pro-Leu-Leu-Tyr (KVPPLLY) (printed: Lys-Val-Pro-Pro-Leu-Leu-Tyr) [Peptide III] | strong benefits to the skin barrier on a cellular level at both concentrations tested | increase the expression of TGM1 and localization | ameliorated | increase filaggrin expression |
| Thr-Trp-Leu-Pro-Leu-Pro-Arg (TWLPLPR) (printed: Thr-Trp-Leu-Pro-Leu-Pro-Arg) [Peptide I] | showed an influence at the higher concentration | increase the expression of TGM1 and localization | ameliorated | increase filaggrin expression |
| Tyr-Val-Leu-Leu-Pro-Ser-Pro-Lys (YVLLPSPK) (printed: Tyr-Val-Leu-Leu-Pro-Ser-Pro-Lys) [Peptide II] | strong benefits to the skin barrier on a cellular level at both concentrations tested | increase the expression of TGM1 and localization | ameliorated | increase filaggrin expression |
